In the CheMixHub viscosity set:

Assay: xn = mol fraction of the nth substance listed

CCCCN + ClC(Cl)Cl
viscosity [mPa·s], 101 kPa
Details	293.15 K	298.15 K	303.15 K	308.15 K
x1 = 0.0601	0.59	0.555	0.529	0.516
x1 = 0.1276	0.603	0.567	0.535	0.525
x1 = 0.1585	0.61	0.571	–	0.529
x1 = 0.2301	0.623	0.583	0.554	0.535
x1 = 0.2658	0.631	0.587	0.558	0.538
x1 = 0.336	0.641	0.598	–	0.541
x1 = 0.4049	0.647	0.6	0.567	0.543
x1 = 0.4341	0.649	0.599	0.568	0.541
x1 = 0.4542	0.649	0.6	–	0.54
x1 = 0.4991	0.645	0.598	0.561	0.536
x1 = 0.6045	0.63	0.585	0.548	0.524
x1 = 0.6156	0.627	0.58	–	0.52
x1 = 0.6443	0.621	0.573	0.54	0.516
x1 = 0.7093	0.604	0.559	0.526	0.503
x1 = 0.7325	0.596	0.552	0.52	0.496
x1 = 0.8611	0.556	0.514	0.487	0.46
x1 = 0.9302	0.532	0.492	0.463	0.437

CCCC(=O)OCC + Clc1ccccc1
viscosity [mPa·s], 101.3 kPa
Details	308.15 K	318.15 K
x1 = 0.0537	0.646	0.596
x1 = 0.0994	0.637	0.588
x1 = 0.1869	0.622	0.574
x1 = 0.357	0.599	0.552
x1 = 0.4049	0.593	0.548
x1 = 0.4939	0.585	0.541
x1 = 0.5929	0.579	0.535
x1 = 0.6953	0.574	0.532
x1 = 0.7941	0.573	0.532
x1 = 0.9017	0.573	0.534
x1 = 0.9369	0.574	0.535

CCCCN + NC1CCCCC1
298.15 K, 101 kPa
Details	viscosity [mPa·s]
x2 = 0.0757	0.6805
x2 = 0.1557	0.8796
x2 = 0.2401	1.111
x2 = 0.3296	1.33
x2 = 0.4244	1.548
x2 = 0.5252	1.774
x2 = 0.6324	1.954
x2 = 0.7468	2.035
x2 = 0.8691	1.976

O=[N+]([O-])[O-].[Ag+] + Nc1cccc(Cl)c1
298.15 K, 101 kPa
Details	viscosity [mPa·s]
x1 = 0.00059	3.52
x1 = 0.0014	3.57
x1 = 0.00381	3.67
x1 = 0.008857	3.92
x1 = 0.02337	4.83
x1 = 0.06044	9.18
